# Earlier results in patent US11840582B2, “Synthesis method of cyclosporine derivatives” (Peking University Shenzhen Graduate School, priority 2021, dated 2023).
# Non-standard residues stand in square brackets, D forms with d. Residues, ends and D or L forms follow the SMILES beside them. NMeThr(4R-Me,4-(CH2)6NHAc) = CN[C@H](C(=O)O)[C@H](O)[C@H](C)CCCCCCNC(C)=O; NMeL = CN[C@@H](CC(C)C)C(=O)O; NMeV = CN[C@H](C(=O)O)C(C)C; dNMeA = CN[C@H](C)C(=O)O; Abu = CC[C@H](N)C(=O)O
# Test system: cyclophilin proteins (CyP), including cyclophilin protein A, cyclophilin protein B, cyclophilin protein H and cyclophilin protein G
compound,measurement,value
"CC[C@@H]1NC(=O)[C@H]([C@H](O)[C@H](C)CCCCCCNC(C)=O)N(C)C(=O)[C@H](C(C)C)N(C)C(=O)[C@H](CC(C)C)N(C)C(=O)[C@H](CC(C)C)N(C)C(=O)[C@@H](C)NC(=O)[C@H](C)NC(=O)[C@H](CC(C)C)N(C)C(=O)[C@H](C(C)C)NC(=O)[C@H](CC(C)C)N(C)C(=O)[C@@H](C)N(C)C1=O [CRV431] (cyclo(A[dA][NMeL][NMeL][NMeV][NMeThr(4R-Me,4-(CH2)6NHAc)][Abu][dNMeA][NMeL]V[NMeL]))",IC50,1 to 7 nM
same,potency relative to cyclosporine A inhibiting the activity of cyclophilin protein,≤ 13 times
